Source: patent US20250081967A1, “PESTICIDALLY ACTIVE HETEROCYCLIC DERIVATIVES WITH SULFOXIMINE CONTAINING SUBSTITUENTS” (SYNGENTA CROP PROTECTION AG, priority 2021, published 2025)

Key:
Assay type in all cases: in vivo
[1] = system: Bemisia tabaci; experiment: Activity against Bemisia tabaci (cotton white fly), cotton leaf discs; conditions: foliar, 144 h, application rate 200 ppm, adult white flies, 6 days after incubation
Description: Example B6: Activity Against Bemisia tabaci (Cotton White Fly)
Cotton leaf discs were placed on agar in 24-well microtiter plates and sprayed with aqueous test solutions prepared from 10′000 ppm DMSO stock solutions. After drying the leaf discs were infested with adult white flies. The samples were checked for mortality 6 days after incubation.

[2] = system: Spodoptera littoralis; experiment: Activity against Spodoptera littoralis (Egyptian cotton leaf worm), cotton leaf discs; conditions: foliar, 72 h, application rate 200 ppm, L1 larvae, 3 days after infestation, read-out: control (mortality, anti-feeding effect or growth inhibition)
Procedure, shortened: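 Cotton leaf discs on agar sprayed with aqueous test solutions made from 10′000 ppm DMSO stocks, dried, then infested with five L1 larvae. Mortality, anti-feeding and growth inhibition scored versus untreated samples 3 days after infestation; control given when any category exceeds untreated.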

[3] = system: Myzus persicae; experiment: Activity against Myzus persicae (green peach aphid), systemic activity, pea seedlings; conditions: Myzus persicae, 144 h, test rate 24 ppm; systemic; 6 days after placing seedlings in test solutions
Description: Example B5: Activity Against Myzus persicae (Green Peach Aphid) Systemic Activity
Roots of pea seedlings infested with an aphid population of mixed ages were placed directly in the aqueous test solutions prepared from 10′000 DMSO stock solutions. The samples were assessed for mortality 6 days after placing seedlings in test solutions.

[4] = system: Myzus persicae; experiment: Activity against Myzus persicae (green peach aphid), feeding/contact activity, sunflower leaf discs; conditions: Myzus persicae, foliar, 144 h, application rate 200 ppm; feeding/contact; 6 days after infestation
Description: Example B4: Activity Against Myzus persicae (Green Peach Aphid) Feeding/Contact Activity
Sunflower leaf discs were placed on agar in a 24-well microtiter plate and sprayed with aqueous test solutions prepared from 10′000 ppm DMSO stock solutions. After drying, the leaf discs were infested with an aphid population of mixed ages. The samples were assessed for mortality 6 days after infestation.

[5] = system: Plutella xylostella; experiment: Activity against Plutella xylostella (diamond back moth), artificial diet, L2 larvae; conditions: 120 h, application rate 200 ppm, 5 days after infestation, read-out: effect in at least one of the two categories (mortality or growth inhibition)
Description: Example B2: Activity Against Plutella xylostella (Diamond Back Moth)
(§1) 24-well microtiter plates with artificial diet were treated with aqueous test solutions prepared from 10′000 ppm DMSO stock solutions by pipetting. After drying, the plates were infested with L2 larvae (10 to 15 per well). The samples were assessed for mortality and growth inhibition in comparison to untreated samples 5 days after infestation.

[6] = system: Diabrotica balteata; experiment: Activity against Diabrotica balteata (corn root worm), maize sprouts; conditions: 96 h, application rate 200 ppm, L2 larvae, 4 days after infestation, read-out: effect in at least one of the two categories (mortality or growth inhibition)
Description: Example B3: Activity Against Diabrotica Balteata (Corn Root Worm)
as §1, with “Maize sprouts placed onto an agar layer in 24-well” for “24-well”, “plates” for “plates with artificial diet”, “spraying.” for “pipetting.”, “(6” for “(10”, “10” for “15”, “4” for “5”

[7] = system: Euschistus heros; experiment: Activity against Euschistus heros (neotropical brown stink bug), soybean leaf; conditions: 120 h, application rate 200 ppm, N-2 nymphs, 5 days after infestation, read-out: effect in at least one of the two categories (mortality or growth inhibition)
Description: Example B7: Activity Against Euschistus heros (Neotropical Brown Stink Bug)
Soybean leaf on agar in 24-well microtiter plates were sprayed with aqueous test solutions prepared from 10′000 ppm DMSO stock solutions. After drying the leaf were infested with N-2 nymphs. The samples were assessed for mortality and growth inhibition in comparison to untreated samples 5 days after infestation.

CCS(=N)(=O)c1cc(OC(C)(C)C#N)c(C)nc1-c1nc2cc(C(F)(F)F)ncc2n1C (racemic) [Compound P17, 2-[[5-(ethylsulfonimidoyl)-2-methyl-6-[3-methyl-6-(trifluoromethyl)imidazo[4,5-c]pyridin-2-yl]-3-pyridyl]oxy]-2-methyl-propanenitrile]
≥ 80%: mortality at 200 ppm [1] | percent control (mortality, anti-feedant effect or growth inhibition) at 200 ppm [2] | mortality at 24 ppm [3] | mortality at 200 ppm [4] | percent effect (mortality or growth inhibition) at 200 ppm [5]

CCS(=N)(=O)c1cc(OC(C)(C)C#N)cnc1-c1cn2ccc(C(F)(F)F)cc2n1 (racemic) [Compound P3, 2-[[5-(ethylsulfonimidoyl)-6-[7-(trifluoromethyl)imidazo[1,2-a]pyridin-2-yl]-3-pyridyl]oxy]-2-methyl-propanenitrile]
≥ 80%: percent control (mortality, anti-feedant effect or growth inhibition) at 200 ppm [2] | mortality at 200 ppm [4] | percent effect (mortality or growth inhibition) at 200 ppm [6] | percent effect (mortality or growth inhibition) at 200 ppm [5]

CCS(=N)(=O)c1cc(OC(C)(C)C#N)cnc1-c1cn2cnc(C(F)(F)F)cc2n1 (racemic) [Compound P11, 2-[[5-(ethylsulfonimidoyl)-6-[7-(trifluoromethyl)imidazo[1,2-c]pyrimidin-2-yl]-3-pyridyl]oxy]-2-methyl-propanenitrile]
≥ 80%: mortality at 200 ppm [1] | percent control (mortality, anti-feedant effect or growth inhibition) at 200 ppm [2] | mortality at 24 ppm [3] | mortality at 200 ppm [4] | percent effect (mortality or growth inhibition) at 200 ppm [6] | percent effect (mortality or growth inhibition) at 200 ppm [5]

CCS(=N)(=O)c1cc(C2(C#N)CC2)cnc1-c1nc2cc(C(F)(F)F)cnc2n1C (racemic) [Compound P16, 1-[5-(ethylsulfonimidoyl)-6-[3-methyl-6-(trifluoromethyl)imidazo[4,5-b]pyridin-2-yl]-3-pyridyl]cyclopropanecarbonitrile]
≥ 80%: mortality at 200 ppm [1] | mortality at 24 ppm [3] | mortality at 200 ppm [4] | percent effect (mortality or growth inhibition) at 200 ppm [5]

CCS(=N)(=O)c1cc(C(C)(C)C#N)cnc1-c1nc2cc(C(F)(F)F)cnc2n1C (racemic) [Compound P12, 2-[5-(ethylsulfonimidoyl)-6-[3-methyl-6-(trifluoromethyl)imidazo[4,5-b]pyridin-2-yl]-3-pyridyl]-2-methyl-propanenitrile]
≥ 80%: mortality at 200 ppm [1] | percent control (mortality, anti-feedant effect or growth inhibition) at 200 ppm [2] | mortality at 24 ppm [3] | mortality at 200 ppm [4] | percent effect (mortality or growth inhibition) at 200 ppm [6] | percent effect (mortality or growth inhibition) at 200 ppm [5]

CCS(=N)(=O)c1cc(OC(C)(C)C#N)cnc1-c1nc2cc(C(F)(F)F)nnc2n1C (racemic) [Compound P15, 2-[[5-(ethylsulfonimidoyl)-6-[7-methyl-3-(trifluoromethyl)imidazo[4,5-c]pyridazin-6-yl]-3-pyridyl]oxy]-2-methyl-propanenitrile]
≥ 80%: mortality at 200 ppm [1] | mortality at 24 ppm [3] | mortality at 200 ppm [4] | percent effect (mortality or growth inhibition) at 200 ppm [6] | percent effect (mortality or growth inhibition) at 200 ppm [5] | percent effect (mortality or growth inhibition) at 200 ppm [7]

CCS(=N)(=O)c1cc(C2(C#N)CC2)ccc1-c1nc2cc(C(F)(F)F)cnc2n1C (racemic) [Compound P6, 1-[3-(ethylsulfonimidoyl)-4-[3-methyl-6-(trifluoromethyl)imidazo[4,5-b]pyridin-2-yl]phenyl]cyclopropanecarbonitrile]
≥ 80%: mortality at 200 ppm [1] | percent control (mortality, anti-feedant effect or growth inhibition) at 200 ppm [2] | mortality at 24 ppm [3] | mortality at 200 ppm [4] | percent effect (mortality or growth inhibition) at 200 ppm [5] | percent effect (mortality or growth inhibition) at 200 ppm [7]
